Experimental findings from US4499087A, “7-Phenyl-7-phenoxymethyl-hexahydro-1,4-oxazepines and their use” (BASF Aktiengesellschaft, priority 1982, dated 1985) are described below.

Structures can show the parent of a compound that is named as a salt.

For one test, the system named is serotonin uptake. Put plainly: Inhibition of serotonin uptake in rat brain synaptosomes (cortex, 3H serotonin). The class given is biochemical. The note with it: 3H serotonin about 10 nM, 37° C., read-out: Serotonin IC50 (inhibition of neurotransmitter uptake in synaptosomes). The protocol:
(§1) The action mechanism of a group of therapeutically much used antidepressants must be regarded as being the inhibition of the neuronal uptake of transmitter substances (norepinephrine and/or serotonin). These properties were utilized in biological test models for characterizing potential antidepressants (inhibition of neurotransmitter uptake in rat brain synaptosomes):
(§2) Hippocampus and cortex from rat brain were prepared, and were homogenized in 0.32M sucrose solution. By means of differential centrifuging, synaptosomes were obtained, and these were suspended in buffer solution. The synaptosomes are able actively to take up added neurotransmitter substances (eg. norepinephrine or serotonine) from the surrounding medium. It is possible to antagonize this process by uptake inhibitors, as a function of concentration. Various concentrations of the test substances were added to the synaptosomes, and the mixtures were then incubated with ^3 H norepinephrine (hippocampus) or ^3 H serotonin (cortex) at 37° C. The substrate concentration was about 10 nM. The uptake was terminated by diluting the mixture with ice-cooled buffer solution, after which the synaptosomes were separated off by centrifuging and the ^3 H activity in the sediment was measured. A blank value was determined by incubation at 0° C.
(§3) From the inhibitory values determined for various inhibitor concentrations compared with the control, the mean inhibitory concentration (IC50) was calculated by linear regression following logit-log transformation.

The test system of another test is norepinephrine uptake. The test can be described thus: Inhibition of norepinephrine uptake in rat brain synaptosomes (hippocampus, 3H norepinephrine). The note with it: for IC50: rat hippocampus synaptosomes, 3H norepinephrine about 10 nM, 37° C., read-out: Norepinephrine IC50 (inhibition of neurotransmitter uptake in synaptosomes); for inhibition of norepinephrine and serotonin uptake (in words): synaptosomes, both transmitters. The class given is biochemical. As for the experimental part:
as §1, §2, §3

A word on the IC50: it is the concentration needed to halve the response being measured. `COc1ccc(OCC2(c3ccccc3)CCNCCO2)cc1.Cl` (stereo not drawn) [Example 5, 7-phenyl-7-(4-methoxyphenoxymethyl)-hexahydro-1,4-oxazepine hydrochloride]: in the test with serotonin uptake, the IC50 was determined as 100 nM. Also, in the test with norepinephrine uptake, the IC50 was found to be 86 nM; the “inhibition of norepinephrine and serotonin uptake (in words)” value (“inhibition” below) is on record as “inhibit the uptake of both transmitters at an equally low concentration”.
For `CN1CCOC(COc2ccccc2Cl)(c2ccccc2)CC1` (stereo not drawn) [Example 7], the IC50 was 300 nM in the test with serotonin uptake and 98 nM with norepinephrine uptake. Further, the “inhibition” value in the test with norepinephrine uptake is “inhibit the uptake of both transmitters at an equally low concentration”.
In the case of `CN(C)CCCN1c2ccccc2CCc2ccccc21` [Imipramine, reference compound], the IC50 with serotonin uptake worked out at 130 nM; with norepinephrine uptake, 14 nM. In addition, the “inhibition” value in the test with norepinephrine uptake is “inhibits both norepinephrine uptake and serotonin uptake at low concentration”.
Consider `Clc1ccccc1OCC1(c2ccccc2)CCNCCO1` (stereo not drawn) [Example 2, 7-phenyl-7-(2-chlorophenoxymethyl)-hexahydro-1,4-oxazepine hydrochloride], for which the IC50 in the test on serotonin uptake stood at 460 nM; in the test with norepinephrine uptake, 2.8 nM.
As for `COc1ccccc1OCC1(c2ccccc2)CCNCCO1` (stereo not drawn) [Example 3, 7-phenyl-7-(2-methoxyphenoxymethyl)-hexahydro-1,4-oxazepine hydrochloride], the values for the IC50 with serotonin uptake and in the test with norepinephrine uptake were 190 nM and 5.9 nM, respectively.
On to `c1ccc(OCC2(c3ccccc3)CCNCCO2)cc1` (stereo not drawn) [Example 1, 7-phenyl-7-phenoxymethyl-hexahydro-1,4-oxazepine hydrochloride], for which the results for the IC50 with serotonin uptake and in the test with norepinephrine uptake were 190 nM and 15 nM, respectively.
Turning to `Clc1ccc(OCC2(c3ccccc3)CCNCCO2)cc1` (stereo not drawn) [Example 4, 7-phenyl-7-(4-chlorophenoxymethyl)-hexahydro-1,4-oxazepine], the IC50 in the test on serotonin uptake was determined as 39 nM; in the test with norepinephrine uptake, 74 nM. The “inhibition” value in the test with norepinephrine uptake is “inhibit the uptake of both transmitters at an equally low concentration”.
